Consider 55 compounds from patent publication US8722670B2, “Selective NR2B antagonists” (Bristol-Myers Squibb Company, priority 2011, dated 2014).

The target in the assay is T1, hNR2B (Homo sapiens, UniProt Q05586+Q13224).
T1 construct: expressed in transfected cells; host or cells: Xenopus laevis oocytes, cRNA-injected
The assay is described as follows: Electrophysiology NMDA receptor experiments: two electrode voltage-clamp in Xenopus laevis oocytes, hNR2B IC50. The settings on record: 50 μM glutamate, 30 μM glycine. In kind it is cell-based. In general terms: Two-electrode voltage clamp holds a large cell at a set potential and records current.

[1] abbreviates: hNR2B activity class, read-out: Activity.
Setting [2] is: voltage clamp -40 mV, read-out: hNR2B IC50.

Where two headings read alike, the source gives them in different places. Some results are limits rather than exact numbers.

T1 sequence (Q13224 27-1484, other chains not shown): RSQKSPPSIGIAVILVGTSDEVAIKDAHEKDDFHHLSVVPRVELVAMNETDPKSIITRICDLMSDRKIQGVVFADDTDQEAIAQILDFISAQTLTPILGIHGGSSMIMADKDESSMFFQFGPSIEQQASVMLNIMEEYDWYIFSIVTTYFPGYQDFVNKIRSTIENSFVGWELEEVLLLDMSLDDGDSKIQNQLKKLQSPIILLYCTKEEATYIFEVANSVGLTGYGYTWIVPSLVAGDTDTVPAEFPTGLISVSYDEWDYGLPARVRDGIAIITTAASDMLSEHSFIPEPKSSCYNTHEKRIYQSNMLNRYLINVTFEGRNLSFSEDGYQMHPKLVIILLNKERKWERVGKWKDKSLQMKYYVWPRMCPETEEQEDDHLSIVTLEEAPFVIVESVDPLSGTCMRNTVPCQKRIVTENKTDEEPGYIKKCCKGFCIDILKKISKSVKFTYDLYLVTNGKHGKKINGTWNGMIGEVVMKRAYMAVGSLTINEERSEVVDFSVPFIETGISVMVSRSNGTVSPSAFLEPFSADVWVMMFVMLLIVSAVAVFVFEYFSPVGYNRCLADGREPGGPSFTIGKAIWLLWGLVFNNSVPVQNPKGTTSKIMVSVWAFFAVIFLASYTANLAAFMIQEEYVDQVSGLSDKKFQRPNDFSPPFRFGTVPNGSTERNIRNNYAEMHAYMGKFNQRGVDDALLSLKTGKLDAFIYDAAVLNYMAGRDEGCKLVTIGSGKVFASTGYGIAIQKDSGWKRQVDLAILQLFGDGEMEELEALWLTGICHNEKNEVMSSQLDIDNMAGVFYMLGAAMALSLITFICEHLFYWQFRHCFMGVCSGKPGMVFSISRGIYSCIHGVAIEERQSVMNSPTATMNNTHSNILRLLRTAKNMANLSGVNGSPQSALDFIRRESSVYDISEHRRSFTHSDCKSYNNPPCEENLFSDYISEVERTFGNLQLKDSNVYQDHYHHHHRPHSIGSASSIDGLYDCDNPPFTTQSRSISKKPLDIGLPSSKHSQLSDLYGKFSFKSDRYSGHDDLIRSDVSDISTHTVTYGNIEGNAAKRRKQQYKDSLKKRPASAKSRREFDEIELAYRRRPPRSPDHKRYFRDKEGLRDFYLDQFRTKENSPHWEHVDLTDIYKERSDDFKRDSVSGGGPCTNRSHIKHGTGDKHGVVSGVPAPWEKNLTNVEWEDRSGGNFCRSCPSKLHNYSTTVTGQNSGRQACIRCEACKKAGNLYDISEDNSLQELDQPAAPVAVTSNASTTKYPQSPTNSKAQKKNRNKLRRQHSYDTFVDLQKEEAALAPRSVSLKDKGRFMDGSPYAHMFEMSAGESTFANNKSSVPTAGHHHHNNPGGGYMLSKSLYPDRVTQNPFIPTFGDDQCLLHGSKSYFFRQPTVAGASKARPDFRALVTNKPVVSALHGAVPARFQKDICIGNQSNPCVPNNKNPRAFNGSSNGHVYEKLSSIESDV

For `O=c1ccc2cc(OCc3nc(Nc4ccc(Cl)c(Cl)c4)no3)ccc2[nH]1` [Example 178], under setting [1], the IC50 lay within 201 to 1000 nM.
The same measure, in the same setting: the same measure for `O=C1CCc2cc(OCc3nc(Nc4ccc(OC(F)(F)F)cc4)no3)ccc2N1` [Example 179]: 201 to 1000 nM; for `O=C1CCc2cc(OCc3nc(Nc4ccc(C(F)(F)F)cc4)no3)ccc2N1` [Example 180]: 1000 to 10000 nM.
With `O=c1ccc2cc(OCc3nc(Nc4ccc(C(F)(F)F)cc4)no3)ccc2[nH]1` [Example 181], the IC50 under setting [2] is 145 nM.
`O=C1CCc2cc(OCc3nc(Nc4ccc(Cl)cc4)no3)ccc2N1` [Example 182]: under setting [1], the IC50 fell in the range of 1000 to 10000 nM.
The same measure, in the same setting: the same measure for `O=c1ccc2cc(OCc3nc(Nc4ccc(Cl)cc4)no3)ccc2[nH]1` [Example 183]: 1000 to 10000 nM.
On the same count and under the same terms, to `Oc1ccc(OCc2nc(Nc3ccc(Cl)c(Cl)c3)no2)cc1` [Example 184] belongs 1000 to 10000 nM; to `Oc1ccc(OCc2nc(Nc3ccc(C(F)(F)F)cc3)no2)cc1` [Example 185], 1000 to 10000 nM.
For `O=C1CCc2cc(OCc3nc(Nc4ccc(OC(F)F)cc4)no3)ccc2N1` [Example 186], the IC50 under setting [1] lay within 201 to 1000 nM.
Still for that read-out and setting: to `Clc1ccc(Nc2noc(COc3ccc4[nH]ncc4c3)n2)cc1Cl` [Example 187] belongs more than 10000 nM.
Still for that read-out and setting: the same measure for `FC(F)(F)c1ccc(Nc2noc(COc3ccc4[nH]ncc4c3)n2)cc1` [Example 188]: more than 10000 nM; for `Clc1ccc(CNc2noc(COc3ccc4[nH]ncc4c3)n2)cc1` [Example 189]: 1000 to 10000 nM.
Consider `O=c1ccc2cc(OCc3nc(Nc4ccc(OC(F)F)cc4)no3)ccc2[nH]1` [Example 190], for which the IC50 under setting [2] came out at 168 nM.
In the case of `O=c1ccc2cc(OCc3nc(Nc4ccc(OC(F)F)c(Cl)c4)no3)ccc2[nH]1` [Example 191], the IC50 under setting [1] is less than 200 nM.
The same measure, in the same setting: to `O=c1ccc2cc(OCc3nc(Nc4ccc(F)c(Cl)c4)no3)ccc2[nH]1` [Example 192] belongs 1000 to 10000 nM.
Regarding `O=C1CCc2cc(CCc3nc(Nc4ccc(Cl)c(Cl)c4)no3)ccc2N1` [Example 194, 6-(2-(3-(3,4-dichlorophenylamino)-1,2,4-oxadiazol-5-yl)ethyl)-3,4-dihydroquinolin-2(1H)-one], the IC50 under setting [2] is more than 10000 nM.
For `FC(F)(F)Oc1ccc(Nc2noc(CCc3ccc4[nH]nc(C(F)(F)F)c4c3)n2)cc1` [Example 195], the IC50 under setting [1] was more than 10000 nM.
Take `FC(F)Oc1ccc(Nc2noc(CCc3ccc4[nH]nc(C(F)(F)F)c4c3)n2)cc1Cl` [Example 197]: the IC50 under setting [1] was more than 10000 nM.
Consider `Clc1ccc(Nc2noc(CCc3ccc4[nH]ncc4c3)n2)cc1Cl` [Example 198], for which the IC50 under setting [1] was 1000 to 10000 nM.
Turning to `O=C1CCc2cc(CCc3nc(Nc4ccc(Cl)c(Cl)c4)no3)ccc2N1` [Example 199], under setting [1], the IC50 was more than 10000 nM.
Take `Oc1ccc(CCc2nc(NCc3ccc(Cl)cc3)no2)cc1` [Example 200]: under setting [2], the IC50 is 320 nM.
As for `FC(F)Oc1ccc(Nc2noc(CCc3ccc4[nH]ncc4c3)n2)cc1` [Example 201], the IC50 under setting [2] was determined as 470 nM.
For `Clc1ccc(Nc2noc(CCCc3ccc4[nH]ncc4c3)n2)cc1Cl` [Example 202], the IC50 under setting [1] is more than 10000 nM.
With `FC(F)(F)c1ccc(Nc2noc(CCCc3ccc4[nH]ncc4c3)n2)cc1` [Example 203], the IC50 under setting [1] was more than 10000 nM.
Same read-out and setting: to `O=c1ccc2cc(CCc3nc(Nc4ccc(Cl)c(Cl)c4)no3)ccc2[nH]1` [Example 204] belongs 201 to 1000 nM; to `FC(F)Oc1ccc(Nc2noc(CCc3ccc4[nH]ncc4c3)n2)cc1Cl` [Example 205], more than 10000 nM.
Same read-out and setting: to `FC(F)Oc1ccc(Nc2noc(CCCc3ccc4[nH]ncc4c3)n2)cc1Cl` [Example 206] belongs 1000 to 10000 nM; to `FC(F)Oc1ccc(Nc2noc(CCNc3ncnc4[nH]ncc34)n2)cc1Cl` [Example 207], less than 200 nM.
Consider `O=c1ccc2cc(CCc3nc(Nc4ccc(OC(F)F)c(Cl)c4)no3)ccc2[nH]1` [Example 208], for which, under setting [2], the IC50 turned out to be 11 nM.
Consider `Cc1ccc(Nc2noc(CCc3ccc4[nH]ncc4c3)n2)cc1F` [Example 209], for which the IC50 under setting [2] amounted to 19 nM.
For `Fc1cc(Nc2noc(CCc3ccc4[nH]ncc4c3)n2)ccc1OC(F)F` [Example 210], under setting [1], the IC50 was less than 200 nM.
Same read-out and setting: the same measure for `CCc1ccc(Nc2noc(CCc3ccc4[nH]ncc4c3)n2)cc1` [Example 211]: less than 200 nM; for `CCc1ccc(Nc2noc(CCc3ccc4[nH]ncc4c3)n2)cc1Cl` [Example 212]: 201 to 1000 nM; for `COc1ccc(Nc2noc(CCc3ccc4[nH]ncc4c3)n2)cc1C` [Example 213]: 1000 to 10000 nM.
As to `Cc1cc(Nc2noc(CCc3ccc4[nH]ncc4c3)n2)ccc1OC(F)F` [Example 214], the IC50 under setting [1] lay within 201 to 1000 nM.
Same read-out and setting: to `CCc1ccc(Nc2noc(CCc3ccc4[nH]ncc4c3)n2)cc1F` [Example 215] belongs less than 200 nM; to `Fc1ccc(Nc2noc(CCc3ccc4[nH]ncc4c3)n2)cc1C(F)F` [Example 216], 201 to 1000 nM.
Same read-out and setting: to `Oc1ccc(CCc2nc(Nc3ccc(OC(F)F)c(F)c3)no2)cc1` [Example 219] belongs less than 200 nM; to `Oc1ccc(CCc2nc(Nc3ccc(C(F)(F)F)cc3)no2)cc1` [Example 223], 201 to 1000 nM; to `Oc1ccc(CCc2nc(Nc3ccc(OC(F)(F)F)cc3)no2)cc1` [Example 224], 201 to 1000 nM.
Turning to `Oc1ccc(CCc2nc(Nc3ccc(Cl)cc3)no2)cc1` [Example 225], under setting [1], the IC50 lay within 201 to 1000 nM.
Still for that read-out and setting: the same measure for `Oc1ccc(CCc2nc(Nc3ccc(OC(F)F)cc3)no2)cc1` [Example 226]: 201 to 1000 nM; for `Fc1cc(Nc2noc(CCc3ccc4cn[nH]c4c3)n2)ccc1Cl` [Example 227]: more than 10000 nM.
Take `Fc1cc(Nc2noc(CCc3cccc4[nH]ncc34)n2)ccc1Cl` [Example 228]: the IC50 under setting [1] fell in the range of 1000 to 10000 nM.
In the case of `FC(F)Oc1ccc(Nc2noc(CCc3ccc4cn[nH]c4c3)n2)cc1Cl` [Example 230], the IC50 under setting [1] is less than 200 nM.
The same measure, in the same setting: the same measure for `FC(F)Oc1ccc(Nc2noc(CCc3cccc4[nH]ncc34)n2)cc1Cl` [Example 231]: 1000 to 10000 nM; for `Oc1ccc(CCc2nc(Nc3ccc(Cl)c(Cl)c3)no2)cc1` [Example 232]: 1000 to 10000 nM; for `Fc1cc(Nc2noc(CCc3cnc4[nH]ncc4c3)n2)ccc1OC(F)F` [Example 233]: less than 200 nM.
Same read-out and setting: the same measure for `FC(F)Oc1ccc(Nc2noc(CCc3ccc4[nH]nc(Cl)c4c3)n2)cc1Cl` [Example 234]: 1000 to 10000 nM.
Consider `Cc1cc(Nc2noc(C3CC3c3ccc4[nH]c(=O)ccc4c3)n2)ccc1OC(F)F` (stereo not shown) [Example 235, 6-(2-(3-((4-(difluoromethoxy)-3-methylphenyl)amino)-1,2,4-oxadiazol-5-yl)cyclopropyl)quinolin-2(1H)-one], for which, under setting [2], the IC50 was 44 nM.
As to `Cc1cc(Nc2noc(C3CC3c3ccc4[nH]ncc4c3)n2)ccc1OC(F)F` (stereo not shown) [Example 236], the IC50 under setting [1] is 201 to 1000 nM.
On the same count and under the same terms, to `Fc1cc(Nc2noc(C3CC3c3ccc4[nH]ncc4c3)n2)ccc1OC(F)F` (stereo not shown) [Example 238] belongs less than 200 nM.
`O=C1CCc2cc(OCc3noc(Nc4ccc(Cl)c(Cl)c4)n3)ccc2N1` [Example 239, 6-((5-((3,4-dichlorophenyl)amino)-1,2,4-oxadiazol-3-yl)methoxy)-3,4-dihydroquinolin-2(1H)-one]: the IC50 under setting [2] was determined as 3600 nM.
On the same count and under the same terms, the same measure for `O=C1CCc2cc(OCc3nnc(Nc4ccc(Cl)c(Cl)c4)s3)ccc2N1` [Example 240]: 266 nM; for `O=c1ccc2cc(OCc3nnc(Nc4ccc(C(F)(F)F)cc4)s3)ccc2[nH]1` [Example 241]: 30 nM.
